Measured values published in PMC9000719, “Design, Synthesis and Bioactivity Evaluation of Coumarin–BMT Hybrids as New Acetylcholinesterase Inhibitors” (Molecules, 2022).
pKi: −log10 of the molar value. Values joined by “and” are separate entries in the source; they are usually repeats but may differ in a detail not shown here. Equal entries are not always repeated. “Also recorded” adds a separate entry of the source. Marks after values point to notes of the source that are not given here.

Legend:
Type in all cases: biochemical
[1] = biological target: T1, Acetylcholinesterase (AChE, E.C. 3.1.1.7, from electric eel) (Electrophorus electricus, UniProt O42275); experiment: Crude screening on AChE inhibition (Ellman method); conditions: 2 μM compounds; means ± SEM of at least three independent experiments; normalized as percentage of control
T1 construct: purchased Sigma Aldrich
T1 sequence (O42275 24-633): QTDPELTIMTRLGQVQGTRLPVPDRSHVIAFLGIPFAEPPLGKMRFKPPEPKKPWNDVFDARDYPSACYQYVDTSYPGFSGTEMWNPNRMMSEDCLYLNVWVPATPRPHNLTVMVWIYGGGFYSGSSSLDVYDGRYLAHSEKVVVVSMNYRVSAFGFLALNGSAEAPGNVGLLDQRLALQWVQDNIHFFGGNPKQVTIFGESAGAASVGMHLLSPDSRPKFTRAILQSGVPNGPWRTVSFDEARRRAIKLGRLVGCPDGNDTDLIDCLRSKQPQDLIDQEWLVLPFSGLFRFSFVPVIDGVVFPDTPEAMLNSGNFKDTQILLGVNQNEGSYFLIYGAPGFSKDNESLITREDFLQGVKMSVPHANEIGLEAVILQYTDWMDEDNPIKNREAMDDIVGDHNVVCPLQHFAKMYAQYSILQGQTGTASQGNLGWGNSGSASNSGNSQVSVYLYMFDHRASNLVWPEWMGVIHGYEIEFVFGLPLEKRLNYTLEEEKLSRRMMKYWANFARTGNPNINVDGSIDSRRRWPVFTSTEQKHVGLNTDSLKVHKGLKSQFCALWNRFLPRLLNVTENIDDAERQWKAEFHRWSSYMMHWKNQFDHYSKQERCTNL

[2] = biological target: T2, AChE (Electrophorus electricus); experiment: biochemical; conditions: inhibition constant against AChE; substrate ATCI at two concentrations
T2 construct: purchased Sigma Aldrich
T2 sequence (O42275 24-633): as above
Method: (§1) Kinetic characterization was performed using Dixon’s method. […] Assay medium contained DTNB solution 15 mM (40 µL), AChE solution 10 units/mL (50 µL), substrate solutions (10 µL) and various concentrations of tested compounds (20 µL). […] Results were computed and presented on the Lineweaver–Burk plot to determine the Ki value and to distinguish the type of enzyme inhibition.

[3] = test system: T3, human AChE (Electrophorus electricus); experiment: biochemical; conditions: Lineweaver–Burk plots
T3 construct: purchased Sigma Aldrich
T3 sequence (O42275 24-633): as above
Method: as §1

Compound	Inhibition Ratio (%) [1]	pKi [2]	type of enzyme inhibition [3]
2-oxo-7-(trifluoromethoxy)-N-(6-((4,11,11-trimethyl-1,2,3,4-tetrahydro-1,4-methanoacridin-9-yl)amino)hexyl)-2H-chromene-3-carboxamide [Compound 8d]	62.92 ± 3.32 ^e %		
7-bromo-2-oxo-N-(6-((4,11,11-trimethyl-1,2,3,4-tetrahydro-1,4-methanoacridin-9-yl)amino)hexyl)-2H-chromene-3-carboxamide [Compound 8c]	57.58 ± 3.30 ^fg %		
CC12CCC(c3c1nc1ccccc1c3NCCCCCNC(=O)c1cc3ccccc3oc1=O)C2(C)C (centres unmarked) [Compound 7a, 2-oxo-N-(5-((4,11,11-trimethyl-1,2,3,4-tetrahydro-1,4-methanoacridin-9-yl)amino)pentyl)-2H-chromene-3-carboxamide]	71.11 ± 0.94 ^d %		
Cc1ccc2oc(=O)c(C(=O)NCCCCCNc3c4c(nc5ccccc35)C3(C)CCC4C3(C)C)cc2c1 (centres unmarked) [Compound 7b, 6-methyl-2-oxo-N-(5-((4,11,11-trimethyl-1,2,3,4-tetrahydro-1,4-methanoacridin-9-yl)amino)pentyl)-2H-chromene-3-carboxamide]	85.71 ± 1.66 ^bc %	6.72	
CC12CCC(c3c1nc1ccccc1c3NCCCCCNC(=O)c1cc3cc(Br)ccc3oc1=O)C2(C)C (centres unmarked) [Compound 7c, 6-bromo-2-oxo-N-(5-((4,11,11-trimethyl-1,2,3,4-tetrahydro-1,4-methanoacridin-9-yl)amino)pentyl)-2H-chromene-3-carboxamide]	50.72 ± 2.98 ^h %		
CC12CCC(c3c1nc1ccccc1c3NCCCCCNC(=O)c1cc3cc(OC(F)(F)F)ccc3oc1=O)C2(C)C (centres unmarked) [Compound 7d, 2-oxo-6-(trifluoromethoxy)-N-(5-((4,11,11-trimethyl-1,2,3,4-tetrahydro-1,4-methanoacridin-9-yl)amino)pentyl)-2H-chromene-3-carboxamide]	47.51 ± 2.65 ^hi %		
COc1ccc2oc(=O)c(C(=O)NCCCCCNc3c4c(nc5ccccc35)C3(C)CCC4C3(C)C)cc2c1 (centres unmarked) [Compound 7e, 6-methoxy-2-oxo-N-(5-((4,11,11-trimethyl-1,2,3,4-tetrahydro-1,4-methanoacridin-9-yl)amino)pentyl)-2H-chromene-3-carboxamide]	86.68 ± 2.18 ^b %	7.19	
COc1ccc2cc(C(=O)NCCCCCNc3c4c(nc5ccccc35)C3(C)CCC4C3(C)C)c(=O)oc2c1 (centres unmarked) [Compound 7f, 7-methoxy-2-oxo-N-(5-((4,11,11-trimethyl-1,2,3,4-tetrahydro-1,4-methanoacridin-9-yl)amino)pentyl)-2H-chromene-3-carboxamide]	81.70 ± 4.82 ^c %	6.93	
COc1cc2cc(C(=O)NCCCCCNc3c4c(nc5ccccc35)C3(C)CCC4C3(C)C)c(=O)oc2cc1OC (centres unmarked) [Compound 7g, 6,7-dimethoxy-2-oxo-N-(5-((4,11,11-trimethyl-1,2,3,4-tetrahydro-1,4-methanoacridin-9-yl)amino)pentyl)-2H-chromene-3-carboxamide]	84.75 ± 1.27 ^bc %	6.82	
CC12CCC(c3c1nc1ccccc1c3NCCCCCCNC(=O)c1cc3ccccc3oc1=O)C2(C)C (centres unmarked) [Compound 8a, 2-oxo-N-(6-((4,11,11-trimethyl-1,2,3,4-tetrahydro-1,4-methanoacridin-9-yl)amino)hexyl)-2H-chromene-3-carboxamide]	66.57 ± 1.09 ^de %		
Cc1ccc2oc(=O)c(C(=O)NCCCCCCNc3c4c(nc5ccccc35)C3(C)CCC4C3(C)C)cc2c1 (centres unmarked) [Compound 8b]	86.60% and 86.60 ± 2.13 ^b %	7.31	mixed-type inhibition; also recorded: mixed-type inhibitor
COc1ccc2oc(=O)c(C(=O)NCCCCCCNc3c4c(nc5ccccc35)C3(C)CCC4C3(C)C)cc2c1 (centres unmarked) [Compound 8e, 6-methoxy-2-oxo-N-(6-((4,11,11-trimethyl-1,2,3,4-tetrahydro-1,4-methanoacridin-9-yl)amino)hexyl)-2H-chromene-3-carboxamide]	87.48% and 87.48 ± 0.27 ^b %	7.29	mixed-type inhibition; also recorded: mixed-type inhibitor
COc1ccc2cc(C(=O)NCCCCCCNc3c4c(nc5ccccc35)C3(C)CCC4C3(C)C)c(=O)oc2c1 (centres unmarked) [Compound 8f, 7-methoxy-2-oxo-N-(6-((4,11,11-trimethyl-1,2,3,4-tetrahydro-1,4-methanoacridin-9-yl)amino)hexyl)-2H-chromene-3-carboxamide]	62.44 ± 1.63 ^e %		
COc1cc2cc(C(=O)NCCCCCCNc3c4c(nc5ccccc35)C3(C)CCC4C3(C)C)c(=O)oc2cc1OC (centres unmarked) [Compound 8g, 6,7-dimethoxy-2-oxo-N-(6-((4,11,11-trimethyl-1,2,3,4-tetrahydro-1,4-methanoacridin-9-yl)amino)hexyl)-2H-chromene-3-carboxamide]	62.74 ± 0.27 ^e %		
CC12CCC(c3c1nc1ccccc1c3NCCCCCCCNC(=O)c1cc3ccccc3oc1=O)C2(C)C (centres unmarked) [Compound 9a, 2-oxo-N-(7-((4,11,11-trimethyl-1,2,3,4-tetrahydro-1,4-methanoacridin-9-yl)amino)heptyl)-2H-chromene-3-carboxamide]	40.65 ± 4.28 ^j %		
Cc1ccc2oc(=O)c(C(=O)NCCCCCCCNc3c4c(nc5ccccc35)C3(C)CCC4C3(C)C)cc2c1 (centres unmarked) [Compound 9b, 6-methyl-2-oxo-N-(7-((4,11,11-trimethyl-1,2,3,4-tetrahydro-1,4-methanoacridin-9-yl)amino)heptyl)-2H-chromene-3-carboxamide]	61.56 ± 4.65 ^ef %		
CC12CCC(c3c1nc1ccccc1c3NCCCCCCCNC(=O)c1cc3cc(Br)ccc3oc1=O)C2(C)C (centres unmarked) [Compound 9c, 6-bromo-2-oxo-N-(7-((4,11,11-trimethyl-1,2,3,4-tetrahydro-1,4-methanoacridin-9-yl)amino)heptyl)-2H-chromene-3-carboxamide]	44.05 ± 2.74 ^ij %		
CC12CCC(c3c1nc1ccccc1c3NCCCCCCCNC(=O)c1cc3cc(OC(F)(F)F)ccc3oc1=O)C2(C)C (centres unmarked) [Compound 9d, 2-oxo-6-(trifluoromethoxy)-N-(7-((4,11,11-trimethyl-1,2,3,4-tetrahydro-1,4-methanoacridin-9-yl)amino)heptyl)-2H-chromene-3-carboxamide]	40.35 ± 2.45 ^j %		
COc1ccc2oc(=O)c(C(=O)NCCCCCCCNc3c4c(nc5ccccc35)C3(C)CCC4C3(C)C)cc2c1 (centres unmarked) [Compound 9e, 6-methoxy-2-oxo-N-(7-((4,11,11-trimethyl-1,2,3,4-tetrahydro-1,4-methanoacridin-9-yl)amino)heptyl)-2H-chromene-3-carboxamide]	62.15 ± 3.14 ^ef %		
COc1ccc2cc(C(=O)NCCCCCCCNc3c4c(nc5ccccc35)C3(C)CCC4C3(C)C)c(=O)oc2c1 (centres unmarked) [Compound 9f, 7-methoxy-2-oxo-N-(7-((4,11,11-trimethyl-1,2,3,4-tetrahydro-1,4-methanoacridin-9-yl)amino)heptyl)-2H-chromene-3-carboxamide]	56.11 ± 2.60 ^g %		
COc1cc2cc(C(=O)NCCCCCCCNc3c4c(nc5ccccc35)C3(C)CCC4C3(C)C)c(=O)oc2cc1OC (centres unmarked) [Compound 9g, 6,7-dimethoxy-2-oxo-N-(7-((4,11,11-trimethyl-1,2,3,4-tetrahydro-1,4-methanoacridin-9-yl)amino)heptyl)-2H-chromene-3-carboxamide]	35.49 ± 3.86 ^k %		
